Measurements published in patent US10689365B2, “Substituted 2-alkylimidazolylcarboxamides as pesticides” (Bayer CropScience Aktiengesellschaft, priority 2016, dated 2020).
Where two headings read alike, the source gives them in different places.

Columns and labels:
[1] = test system: Myzus persicae; test: Myzus persicae - spray test (MYZUPE), Chinese cabbage leaf discs; assay type: in vivo; conditions: foliar; for percent efficacy (aphid mortality) at 20 g/ha / Emax at 20 g/ha: 20 g of ai/ha; for percent efficacy (aphid mortality) at 100 g/ha: 100 g of ai/ha; for Emax at 20 g/ha: read-out: % efficacy
Procedure: Myzus persicae—Spray Test (MYZUPE)
Solvent: 78.0 parts by weight of acetone • • 1.5 parts by weight of dimethylformamide
(§1) Emulsifier: alkylaryl polyglycol ether
(§2) To produce a suitable active compound preparation, 1 part by weight of active compound is dissolved using the stated parts by weight of solvent and made up with water containing an emulsifier concentration of 1000 ppm until the desired concentration is attained. To produce further test concentrations, the formulation is diluted with emulsifier-containing water.
Discs of Chinese cabbage leaves (Brassica pekinensis) infested by all stages of the green peach aphid (Myzus persicae) are sprayed with an active compound preparation of the desired concentration.
(§3) After the desired period of time, the efficacy in % is determined. 100% means that all the aphids have been killed; 0% means that no aphids have been killed.

[2] = test system: Myzus persicae; test: Myzus persicae - oral test (MYZUPE O); assay type: in vivo; conditions: read-out: % efficacy
Procedure: Myzus persicae—Oral Test (MYZUPE O)
(§4) Solvent: 100 parts by weight of acetone
(§5) To produce a suitable preparation of active compound, 1 part by weight of active compound is dissolved using the specified parts by weight of solvent and made up with water until the desired concentration is attained.
(§6) 50 μl of the active compound preparation are transferred into microtitre plates and made up to a final volume of 200 μl with 150 μl of IPL41 insect medium (33%+15% sugar). Subsequently, the plates are sealed with parafilm, which a mixed population of green peach aphids (Myzus persicae) within a second microtitre plate is able to puncture and imbibe the solution through it.
as §3

[3] = test system: Myzus persicae; test: Myzus persicae - oral test; assay type: in vivo; conditions: application rate 20 ppm, after 5 days; for pest or weed control at 20 ppm: Myzus persicae, po, 120 h, read-out: efficacy
Procedure: as §4, §5, §6
After 5 days, the efficacy in % is determined. 100% means that all the aphids have been killed; 0% means that no aphids have been killed.

[4] = test system: Myzus persicae; test: Myzus persicae - spray test (Chinese cabbage leaf discs); assay type: in vivo; conditions: application rate 500 g/ha, after 5-6 days; for pest or weed control at 500 g/ha: Myzus persicae, foliar, read-out: efficacy
Procedure: Myzus persicae—Spray Test
Solvent: 78 parts by weight of acetone • • 1.5 parts by weight of dimethylformamide
as §1, §2
Discs of Chinese cabbage leaves (Brassica pekinensis) infested by all stages of the green peach aphid (Myzus persicae) are sprayed with an active ingredient formulation of the desired concentration.
After 5-6 days, the efficacy in % is determined. 100% means that all the aphids have been killed; 0% means that no aphids have been killed.

[5] = log P by HPLC on reversed-phase (C18) columns, OECD Guideline 117; assay type: physicochemical; conditions: for chromatographic logP: reversed-phase (C18) HPLC column
Procedure: The log P values were determined in accordance with OECD Guideline 117 (EC Directive 92/69/EEC) by HPLC (high-performance liquid chromatography) using reversed-phase (RP) columns (C18), by the following methods:
[a] The LC-MS determination in the acidic range was carried out at pH 2.7 with 0.1% aqueous formic acid and acetonitrile (contains 0.1% formic acid) as mobile phases; linear gradient from 10% acetonitrile to 95% acetonitrile.
[b] LC-MS determination in the neutral range was carried out at pH 7.8 with 0.001 molar aqueous ammonium hydrogencarbonate solution and acetonitrile as mobile phases; linear gradient from 10% acetonitrile to 95% acetonitrile.

[6] = test system: Myzus persicae; test: Myzus persicae - drench test (MYZUPE D), Savoy cabbage in soil; assay type: in vivo; conditions: 240 h, 10 dat, read-out: % efficacy
Procedure: Myzus persicae—Drench Test (MYZUPE D)
To produce a suitable active compound preparation, 1 part by weight of active compound is mixed with the specified amounts of solvent and emulsifier, and the concentrate is diluted with water to the desired concentration, it being necessary to include the volume of soil which is drenched in the calculation. It should be ensured that a concentration of 40 ppm of emulsifier in the soil is not exceeded. To produce further test concentrations, water is used for dilution.
Savoy cabbage (Brassica oleracea) in pots with soil and infested by all stages of the green peach aphid (Myzus persicae) is watered with an active compound preparation of the desired concentration.
as §3

[7] = test system: Aphis gossypii; test: Aphis gossypii - spray test (APHIGO S), cotton plants; assay type: in vivo; conditions: 144 h, 6 dat, read-out: % efficacy
Procedure: Aphis gossypii—Spray Test (APHIGO S)
(§7) Solvent: 14 parts by weight of dimethylformamide
as §1
as §2, with “water. If the addition of ammonium salts or/and penetrants is required, these are each added in a concentration of 1000 ppm to the formulation solution.” for “water.”
Cotton plants (Gossypium hirsutum) heavily infested by the cotton aphid (Aphis gossypii) are sprayed with an active ingredient formulation of the desired concentration.
After the desired time, the kill in % is determined. 100% means that all the aphids have been killed; 0% means that no aphids have been killed.

[8] = test system: Myzus persicae; test: Myzus persicae - spray test (MYZUPE S), bell pepper plants; assay type: in vivo; conditions: 144 h, 6 dat, read-out: % efficacy
Procedure: Myzus persicae—Spray Test (MYZUPE S)
as §7, §1
as §2, with “with” for “using”, “specified” for “stated”, “water. If the addition of ammonium salts or/and penetrants is required, these are each added in a concentration of 1000 ppm to the formulation solution.” for “water.”
Bell pepper plants (Capsicum annuum) severely infested with the green peach aphid (Myzus persicae) are treated by spraying with the active ingredient formulation in the desired concentration.
After the desired time, the kill in % is determined. 100% means that all the animals have been killed; 0% means that no animals have been killed.

[9] = acidic range, pH 2.7, 0.1% aqueous formic acid/acetonitrile, read-out: logP[a]
[10] = neutral range, pH 7.8, aqueous ammonium hydrogencarbonate/acetonitrile, read-out: logP[n]
[11] = acidic range, pH 2.7, 0.1% aqueous formic acid/acetonitrile
[12] = neutral range, pH 7.8, aqueous ammonium hydrogencarbonate/acetonitrile

SMILES	percent efficacy (aphid mortality) at 100 g/ha ([1]; 120 h, 5 dat) [%]	Emax at 4 ppm ([2]; 120 h, 5 dat) [%]	pest or weed control at 20 ppm [3] [%]	pest or weed control at 500 g/ha [4] [%]	chromatographic logP [5, 9]	chromatographic logP [5, 10]	Emax at 0.16 ppm [6] [%]	Emax at 0.8 ppm [7] [%]	Emax at 4 ppm [7] [%]	further results
Cc1nc(C(=O)Nc2cccnc2)c[nH]1 [Prior art WO2011/009804 (Ex. 14), reference compound]	0	0	–	–	–	–	–	–	–	percent efficacy (aphid mortality) at 20 g/ha ([1]; 120 h, 5 dat): 0%
CN(C(=O)c1cnc(Cn2cc(C(F)(F)F)cn2)n1C)c1cccnc1 [Example I-1-45]	–	100	100	90	1.34	1.59	80	–	–	percent efficacy (aphid mortality) at 100 g/ha ([1]; 96 h, 4 dat): 100%; percent kill (mortality) of aphids at a fixed dose at 0.8 ppm [7]: 98%; percent kill (mortality) of aphids at a fixed dose at 4 ppm [7]: 100%
CN(C(=O)c1cnc(CSc2ccccc2)n1C)c1cccnc1 [Example I-1-38]	–	100	90	90	1.14	1.73	–	60	–	percent kill (mortality) of aphids at a fixed dose at 4 ppm [7]: 100%
CCSCc1ncc(C(=O)N(C)c2cccnc2)n1C [Example I-1-27]	90	100	100	90	0.46	1.18	98	98	100	percent efficacy (aphid mortality) at 20 g/ha ([1]; 120 h, 5 dat): 90%
Cc1ncc(C(=O)Nc2cccnc2)n1C [reference compound]	70	–	–	–	–	–	–	–	–	Emax at 20 g/ha ([1]; 120 h, 5 dat): 0%
CCc1ncc(C(=O)N(C)c2cccnc2)n1C [reference compound]	–	–	–	–	–	–	0	–	45	Emax at 0.16 ppm [8]: 0%; percent kill (mortality) of aphids at a fixed dose at 0.8 ppm [7]: 0%
CN(C(=O)c1cnc(Cn2ccc(C(F)(F)F)n2)n1C)c1cccnc1 [Example I-1-44]	–	100	100	100	1.46	1.64	90	55	99	percent efficacy (aphid mortality) at 20 g/ha ([1]; 96 h, 4 dat): 90%; percent efficacy (aphid mortality) at 100 g/ha ([1]; 96 h, 4 dat): 90%
CN(C(=O)c1cnc(Cn2ccnn2)n1C)c1cccnc1 [Example I-1-46]	–	–	100	100	0.05	0.42	–	–	–	percent efficacy (aphid mortality) at 20 g/ha ([1]; 144 h, 6 dat): 90%; percent efficacy (aphid mortality) at 100 g/ha ([1]; 144 h, 6 dat): 90%; Emax at 4 ppm ([2]; 144 h, 6 dat): 100%
CN(C(=O)c1cnc(CSc2ncccn2)n1C)c1cccnc1 [Example I-1-42]	70	90	100	100	0.27	1.01	–	–	–	–
CN(C(=O)c1cnc(CSc2cccc(Cl)c2)n1C)c1cccnc1 [Example I-1-40]	90	100	100	90	1.55	2.11	–	–	–	–
CN(C(=O)c1cnc(CSC(C)(C)C)n1C)c1cccnc1 [Example I-1-33]	90	100	100	100	0.97	1.67	90	–	75	Emax at 20 g/ha ([1]; 120 h, 5 dat): 100%
O=C(Nc1cccnc1)c1c[nH]cn1 [Prior art WO 2011/009804 (Ex. 13), reference compound]	–	–	–	–	–	–	–	–	–	percent efficacy (aphid mortality) at 20 g/ha ([1]; 144 h, 6 dat): 0%; percent efficacy (aphid mortality) at 100 g/ha ([1]; 144 h, 6 dat): 0%; Emax at 4 ppm ([2]; 144 h, 6 dat): 0%
CN(C(=O)c1cnc(Cn2cccn2)n1C)c1cccnc1 [Example I-1-43, N,1-Dimethyl-2-(1H-pyrazol-1-ylmethyl)-N-(pyridin-3-yl)-1H-imidazole-5-carboxamide]	–	100	100	100	0.35	0.81	70	30	98	percent efficacy (aphid mortality) at 20 g/ha ([1]; 96 h, 4 dat): 90%; percent efficacy (aphid mortality) at 100 g/ha ([1]; 96 h, 4 dat): 90%
Cc1ncc(C(=O)N(C)c2cccnc2)n1C [reference compound]	–	–	–	–	–	–	30	–	40	Emax at 0.16 ppm [8]: 0%; percent kill (mortality) of aphids at a fixed dose at 0.8 ppm [7]: 0%
CN(C(=O)c1cnc(CSc2ccccc2Cl)n1C)c1cccnc1 [Example I-1-39]	90	100	100	90	1.41	1.99	–	30	95	percent efficacy (aphid mortality) at 20 g/ha ([1]; 120 h, 5 dat): 90%
CC(C)CCC(O)c1ncc(C(=O)N(C)c2cccnc2)n1C (racemic) [Example I-1-61]	–	–	–	–	–	–	–	–	–	efficacy [3]: 100%; efficacy [4]: 90%; logP[a] [5, 11]: 0.92; logP[n] [5, 12]: 1.53
COC(=O)CSCc1ncc(C(=O)N(C)c2cccnc2)n1C [Example I-1-37]	–	100	100	100	0.35	1.04	–	–	–	–
CN(C(=O)c1cnc(COCC2CC2)n1C)c1cccnc1 [Example I-1-23]	–	–	–	–	–	–	–	–	–	efficacy [3]: 100%; efficacy [4]: 100%; logP[a] [5, 11]: 0.67; logP[n] [5, 12]: 1.29
CN(C(=O)c1cnc(CSc2ccc(Cl)cc2)n1C)c1cccnc1 [Example I-1-41]	90	100	100	90	1.57	2.07	–	35	100	Emax at 20 g/ha ([1]; 120 h, 5 dat): 70%
